Measurements as given in patent US12428406B2 (PMV Pharmaceuticals, Inc., priority 2019, dated 2025).

The compounds below were run against T1, p53 Y220C (Homo sapiens, UniProt P04637, Y220C) (assay: In vitro DNA binding activity assay (HTRF / TR-FRET): stabilization of p53 Y220C and increase of its DNA binding activity). Settings: recombinant His-tagged p53 Y220C DNA binding domain (aa 94-312), biotin-labeled consensus DNA, incubated at 27° C. or 29° C. for 60 min.
T1 construct: The recombinant protein was a truncation mutant containing only amino acids 94-312 of p53; made in house; host or cells: E. coli
T1 sequence (P04637 94-312, change not shown): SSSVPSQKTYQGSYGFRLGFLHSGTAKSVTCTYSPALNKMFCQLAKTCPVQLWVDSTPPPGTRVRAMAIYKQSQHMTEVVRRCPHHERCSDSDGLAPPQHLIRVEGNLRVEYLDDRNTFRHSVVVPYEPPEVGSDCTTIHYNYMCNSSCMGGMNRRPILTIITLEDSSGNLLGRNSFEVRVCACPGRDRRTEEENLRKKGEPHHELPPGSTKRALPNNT
Assay type: biochemical
Method in brief: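 Test compounds, diluted 3-fold in DMSO from 4.5 mM stocks, were incubated with bacterially expressed His-tagged p53 Y220C at room temperature for 15 min, and after a further step for 20 min. DNA binding was detected by time-resolved FRET between APC and europium labels. SC150 marks the concentration increasing binding by 50%.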

| Structure (SMILES) | SC150 (concentration of the compound required to increase the DNA binding activity by 50%) |
| --- | --- |
| COc1ccc(S(C)(=O)=O)cc1NCC#Cc1cc2c(NC3CCN(C)CC3)cccc2n1CC(F)(F)F [Compound 495A, 2-{3-[(5-methanesulfonyl-2-methoxyphenyl)amino]prop-1-yn-1-yl}-N-(1-methylpiperidin-4-yl)-1-(2,2,2-trifluoroethyl)-1H-indol-4-amine] | +++ (+++ = 0.1 μM ≤ SC150 < 0.2 μM) |
| COc1cc(C(=O)NCCO)ccc1NCC#Cc1cc2c(NC3CCN(C)CC3)cccc2n1CC(F)(F)F [Compound 496A] | + (+ = 0 μM ≤ SC150 < 0.05 μM) |
| COCCNC(=O)c1ccc(NCC#Cc2cc3c(NC4CCN(C)CC4)cccc3n2CC(F)(F)F)c(OC)c1 [Compound 497A] | + (+ = 0 μM ≤ SC150 < 0.05 μM) |
| COc1cc(C(=O)NC2CCN(C)CC2)ccc1NCC#Cc1cc2c(NC3CCN(C)CC3)cccc2n1CC(F)(F)F [Compound 498A] | + (+ = 0 μM ≤ SC150 < 0.05 μM) |
| COc1cc(C(=O)N2CCC(N(C)C)CC2)ccc1NCC#Cc1cc2c(NC3CCN(C)CC3)cccc2n1CC(F)(F)F [Compound 499A, 2-[3-({4-[4-(dimethylamino)piperidine-1-carbonyl]-2-methoxyphenyl}amino)prop-1-yn-1-yl]-N-(1-methylpiperidin-4-yl)-1-(2,2,2-trifluoroethyl)-1H-indol-4-amine] | + (+ = 0 μM ≤ SC150 < 0.05 μM) |
| COc1cc(C(=O)NC2CCOCC2)ccc1NCC#Cc1cc2c(NC3CCN(C)CC3)cccc2n1CC(F)(F)F [Compound 500A, 3-methoxy-4-[(3-{4-[(1-methylpiperidin-4-yl)amino]-1-(2,2,2-trifluoroethyl)-1H-indol-2-yl}prop-2-yn-1-yl)amino]-N-(oxan-4-yl)benzamide] | + (+ = 0 μM ≤ SC150 < 0.05 μM) |
| COc1cc(C(=O)N2CCN(C)CC2)ccc1NCC#Cc1cc2c(NC3CCN(C)CC3)cccc2n1CC(F)(F)F [Compound 501A, 2-(3-{[2-methoxy-4-(4-methylpiperazine-1-carbonyl)phenyl]amino}prop-1-yn-1-yl)-N-(1-methylpiperidin-4-yl)-1-(2,2,2-trifluoroethyl)-1H-indol-4-amine] | + (+ = 0 μM ≤ SC150 < 0.05 μM) |
| COc1cc(C(=O)N2CC3(COC3)C2)ccc1NCC#Cc1cc2c(NC3CCN(C)CC3)cccc2n1CC(F)(F)F [Compound 502A, 2-{3-[(2-methoxy-4-{2-oxa-6-azaspiro[3.3]heptane-6-carbonyl}phenyl)amino]prop-1-yn-1-yl}-N-(1-methylpiperidin-4-yl)-1-(2,2,2-trifluoroethyl)-1H-indol-4-amine] | + (+ = 0 μM ≤ SC150 < 0.05 μM) |
| COc1cc(-c2cccnc2)ccc1NCC#Cc1cc2c(NC3CCN(C)CC3)cccc2n1CC(F)(F)F [Compound 503A, 2-(3-{[2-methoxy-4-(pyridin-3-yl)phenyl]amino}prop-1-yn-1-yl)-N-(1-methylpiperidin-4-yl)-1-(2,2,2-trifluoroethyl)-1H-indol-4-amine] | ++ (++ = 0.05 μM ≤ SC150 < 0.1 μM) |
| COc1cc(-c2ccncc2)ccc1NCC#Cc1cc2c(NC3CCN(C)CC3)cccc2n1CC(F)(F)F [Compound 504A, 2-(3-{[2-methoxy-4-(pyridin-4-yl)phenyl]amino}prop-1-yn-1-yl)-N-(1-methylpiperidin-4-yl)-1-(2,2,2-trifluoroethyl)-1H-indol-4-amine] | + (+ = 0 μM ≤ SC150 < 0.05 μM) |
| CN1CCC(Nc2cccc3c2cc(C#CCNC(=O)c2cccnc2)n3CC(F)(F)F)CC1 [Compound 505A, N-(3-{4-[(1-methylpiperidin-4-yl)amino]-1-(2,2,2-trifluoroethyl)-1H-indol-2-yl}prop-2-yn-1-yl)pyridine-3-carboxamide] | +++ (+++ = 0.1 μM ≤ SC150 < 0.2 μM) |
| COc1cc(-c2ncco2)ccc1NCC#Cc1cc2c(NC3CCN(C)CC3)cccc2n1CC(F)(F)F [Compound 506A, 2-(3-{[2-methoxy-4-(1,3-oxazol-2-yl)phenyl]amino}prop-1-yn-1-yl)-N-(1-methylpiperidin-4-yl)-1-(2,2,2-trifluoroethyl)-1H-indol-4-amine] | + (+ = 0 μM ≤ SC150 < 0.05 μM) |
| CN1CCC(Nc2cccc3c2cc(C#CCNc2cccc(S(C)(=O)=O)c2)n3CC(F)(F)F)CC1 [Compound 507A, 2-{3-[(3-methanesulfonylphenyl)amino]prop-1-yn-1-yl}-N-(1-methylpiperidin-4-yl)-1-(2,2,2-trifluoroethyl)-1H-indol-4-amine] | ++ (++ = 0.05 μM ≤ SC150 < 0.1 μM) |
| CN1CCC(Nc2cccc3c2cc(C#CCNc2ccc(CN4CCOCC4)cc2)n3CC(F)(F)F)CC1 [Compound 508A, N-(1-methylpiperidin-4-yl)-2-[3-({4-[(morpholin-4-yl)methyl]phenyl}amino)prop-1-yn-1-yl]-1-(2,2,2-trifluoroethyl)-1H-indol-4-amine] | + (+ = 0 μM ≤ SC150 < 0.05 μM) |
| COc1cc(-c2nccs2)ccc1NCC#Cc1cc2c(NC3CCN(C)CC3)cccc2n1CC(F)(F)F [Compound 509A, 2-(3-{[2-methoxy-4-(1,3-thiazol-2-yl)phenyl]amino}prop-1-yn-1-yl)-N-(1-methylpiperidin-4-yl)-1-(2,2,2-trifluoroethyl)-1H-indol-4-amine] | + (+ = 0 μM ≤ SC150 < 0.05 μM) |
| COCCn1cc(-c2ccc(NCC#Cc3cc4c(NC5CCN(C)CC5)cccc4n3CC(F)(F)F)c(OC)c2)cn1 [Compound 510A, 2-[3-({2-methoxy-4-[1-(2-methoxyethyl)-1H-pyrazol-4-yl]phenyl}amino)prop-1-yn-1-yl]-N-(1-methylpiperidin-4-yl)-1-(2,2,2-trifluoroethyl)-1H-indol-4-amine] | + (+ = 0 μM ≤ SC150 < 0.05 μM) |
| COc1cc(C(=O)N2CC3(CCOCC3)C2)ccc1NCC#Cc1cc2c(NC3CCN(C)CC3)cccc2n1CC(F)(F)F [Compound 511A, 2-{3-[(2-methoxy-4-{7-oxa-2-azaspiro[3.5]nonane-2-carbonyl}phenyl)amino]prop-1-yn-1-yl}-N-(1-methylpiperidin-4-yl)-1-(2,2,2-trifluoroethyl)-1H-indol-4-amine] | + (+ = 0 μM ≤ SC150 < 0.05 μM) |
| COc1cc(Cl)ccc1NCC#Cc1cc2c(NC3CCN(C)CC3)cccc2n1CC(F)(F)F [Compound 512A, 2-{3-[(4-chloro-2-methoxyphenyl)amino]prop-1-yn-1-yl}-N-(1-methylpiperidin-4-yl)-1-(2,2,2-trifluoroethyl)-1H-indol-4-amine] | ++ (++ = 0.05 μM ≤ SC150 < 0.1 μM) |
| COc1cc(C(N)=O)c(F)cc1NCC#Cc1cc2c(NC3CCN(C)CC3)cccc2n1CC(F)(F)F [Compound 514A, 2-fluoro-5-methoxy-4-[(3-{4-[(1-methylpiperidin-4-yl)amino]-1-(2,2,2-trifluoroethyl)-1H-indol-2-yl}prop-2-yn-1-yl)amino]benzamide] | + (+ = 0 μM ≤ SC150 < 0.05 μM) |
| COc1cc(C(F)(F)F)ccc1NCC#Cc1cc2c(NC3CCN(C)CC3)cccc2n1CC(F)(F)F [Compound 515A, 2-(3-{[2-methoxy-4-(trifluoromethyl)phenyl]amino}prop-1-yn-1-yl)-N-(1-methylpiperidin-4-yl)-1-(2,2,2-trifluoroethyl)-1H-indol-4-amine] | ++ (++ = 0.05 μM ≤ SC150 < 0.1 μM) |
| CNC(=O)c1cc(OC)c(NCC#Cc2cc3c(NC4CCN(C)CC4)cccc3n2CC(F)(F)F)cc1F [Compound 516A, 2-fluoro-5-methoxy-N-methyl-4-[(3-{4-[(1-methylpiperidin-4-yl)amino]-1-(2,2,2-trifluoroethyl)-1H-indol-2-yl}prop-2-yn-1-yl)amino]benzamide] | + (+ = 0 μM ≤ SC150 < 0.05 μM) |
| COc1cc(S(C)(=O)=O)ccc1NCC#Cc1cc2c(NC3CCN(C)CC3)cccc2n1CC1CO1 (centres unmarked) [Compound 517A, 2-{3-[(4-methanesulfonyl-2-methoxyphenyl)amino]prop-1-yn-1-yl}-N-(1-methylpiperidin-4-yl)-1-[(oxiran-2-yl)methyl]-1H-indol-4-amine] | +++ (+++ = 0.1 μM ≤ SC150 < 0.2 μM) |
| COc1cc(S(C)(=O)=O)cc(F)c1NCC#Cc1cc2c(NC3CCN(C)CC3)cccc2n1CC(F)(F)F [Compound 519A] | ++++ (++++ = 0.2 μM ≤ SC150 < 1 μM) |
| COc1cc(S(C)(=O)=O)ccc1NCC#Cc1c(C)c2c(NC3CCN(C)CC3)cccc2n1CC(F)(F)F [Compound 520A, 2-{3-[(4-methanesulfonyl-2-methoxyphenyl)amino]prop-1-yn-1-yl}-3-methyl-N-(1-methylpiperidin-4-yl)-1-(2,2,2-trifluoroethyl)-1H-indol-4-amine] | +++ (+++ = 0.1 μM ≤ SC150 < 0.2 μM) |
| COc1cc(S(C)(=O)=O)c(F)cc1NCC#Cc1cc2c(NC3CCN(C)CC3)cccc2n1CC(F)(F)F [Compound 522A, 2-{3-[(5-fluoro-4-methanesulfonyl-2-methoxyphenyl)amino]prop-1-yn-1-yl}-N-(1-methylpiperidin-4-yl)-1-(2,2,2-trifluoroethyl)-1H-indol-4-amine] | + (+ = 0 μM ≤ SC150 < 0.05 μM) |
| CN1CCC(Nc2cccc3c2cc(C#CCNc2ccc(S(C)(=O)=O)s2)n3CC(F)(F)F)CC1 [Compound 523A] | + (+ = 0 μM ≤ SC150 < 0.05 μM) |
